Assay results published in PubChem BioAssay (NCI).
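Growth conditions: 96-well plates. Treatment: test compound, 48 hours, 5 concentrations. Analysis: linear interpolation between bracketing concentrations; unreached endpoints set to highest concentration. GI50 marks 50% less growth. TGI marks complete inhibition of growth.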

Columns and labels:
Assay in all cases: NCI-60 cell line screen, 48 h
786-0 renal = test system: 786-0 renal
A498 renal = test system: A498 renal
A549 NSCLC = test system: A549 NSCLC
ACHN renal = test system: ACHN renal
CAKI-1 renal = test system: CAKI-1 renal
CCRF-CEM leukemia = test system: CCRF-CEM leukemia
COLO 205 colon = test system: COLO 205 colon
DU-145 prostate = test system: DU-145 prostate
HCC-2998 colon = test system: HCC-2998 colon
HCT-116 colon = test system: HCT-116 colon
HCT-15 colon = test system: HCT-15 colon
HL-60(TB) leukemia = test system: HL-60(TB) leukemia
HOP-62 NSCLC = test system: HOP-62 NSCLC
HOP-92 NSCLC = test system: HOP-92 NSCLC
HS 578T breast = test system: HS 578T breast
HT29 colon = test system: HT29 colon
IGROV1 ovarian = test system: IGROV1 ovarian
K-562 leukemia = test system: K-562 leukemia
KM12 colon = test system: KM12 colon
LOX IMVI melanoma = test system: LOX IMVI melanoma
M14 melanoma = test system: M14 melanoma
MCF7 breast = test system: MCF7 breast
MDA-MB-231 breast = test system: MDA-MB-231 breast
MDA-MB-435 = test system: MDA-MB-435
MOLT-4 leukemia = test system: MOLT-4 leukemia
NCI-H226 lung = test system: NCI-H226 lung
NCI-H23 lung = test system: NCI-H23 lung
NCI-H460 lung = test system: NCI-H460 lung
NCI-H522 lung = test system: NCI-H522 lung
NCI/ADR-RES ovarian = test system: NCI/ADR-RES ovarian
OVCAR-3 ovarian = test system: OVCAR-3 ovarian
OVCAR-4 ovarian = test system: OVCAR-4 ovarian
OVCAR-5 ovarian = test system: OVCAR-5 ovarian
OVCAR-8 ovarian = test system: OVCAR-8 ovarian
PC-3 prostate = test system: PC-3 prostate
RPMI-8226 leukemia = test system: RPMI-8226 leukemia
RXF 393 renal = test system: RXF 393 renal
SF-268 CNS = test system: SF-268 CNS
SF-295 CNS = test system: SF-295 CNS
SF-539 CNS = test system: SF-539 CNS
SK-MEL-2 melanoma = test system: SK-MEL-2 melanoma
SK-MEL-28 melanoma = test system: SK-MEL-28 melanoma
SK-MEL-5 melanoma = test system: SK-MEL-5 melanoma
SK-OV-3 ovarian = test system: SK-OV-3 ovarian
SN12C renal = test system: SN12C renal
SNB-19 CNS = test system: SNB-19 CNS
SNB-75 CNS = test system: SNB-75 CNS
SR leukemia = test system: SR leukemia
SW-620 colon = test system: SW-620 colon
T-47D breast = test system: T-47D breast
TK-10 renal = test system: TK-10 renal
U251 CNS = test system: U251 CNS
UACC-257 melanoma = test system: UACC-257 melanoma
UACC-62 melanoma = test system: UACC-62 melanoma
UO-31 renal = test system: UO-31 renal

## NC(=O)c1cc(Cl)ccc1NC(=O)COc1ccccc1
786-0 renal
  GI50: 9.54 µM
  TGI: > 100 µM
A498 renal
  GI50: 1.41 µM
  TGI: 9.27 µM
A549 NSCLC
  GI50: 7.06 µM
  TGI: > 100 µM
ACHN renal
  GI50: 10.7 µM
  TGI: > 100 µM
CAKI-1 renal
  GI50: 4.18 µM
  TGI: > 100 µM
CCRF-CEM leukemia
  GI50: 3.07 µM
  TGI: > 100 µM
COLO 205 colon
  GI50: 2.51 µM
  TGI: 14.4 µM
DU-145 prostate
  GI50: 6.01 µM
  TGI: > 100 µM
HCC-2998 colon
  GI50: 12.1 µM
  TGI: > 100 µM
HCT-116 colon
  GI50: 2.72 µM
  TGI: > 100 µM
HCT-15 colon
  GI50: 1.57 µM
  TGI: > 100 µM
HL-60(TB) leukemia
  GI50: 3.29 µM
  TGI: 70.7 µM
HOP-62 NSCLC
  GI50: 5.88 µM
  TGI: > 100 µM
HOP-92 NSCLC
  GI50: 5.7 µM
  TGI: > 100 µM
HS 578T breast
  GI50: 4.65 µM
  TGI: > 100 µM
HT29 colon
  GI50: 1.74 µM
  TGI: > 100 µM
IGROV1 ovarian
  GI50: 5.6 µM
  TGI: > 100 µM
K-562 leukemia
  GI50: 0.854 µM
  TGI: > 100 µM
KM12 colon
  GI50: 2.13 µM
  TGI: > 100 µM
LOX IMVI melanoma
  GI50: 8.33 µM
  TGI: > 100 µM
M14 melanoma
  GI50: 2.21 µM
  TGI: > 100 µM
MCF7 breast
  GI50: 1.81 µM
  TGI: > 100 µM
MDA-MB-231 breast
  GI50: 9.02 µM
  TGI: > 100 µM
MDA-MB-435
  GI50: 0.356 µM
  TGI: 2.22 µM
MOLT-4 leukemia
  GI50: 8.14 µM
  TGI: > 100 µM
NCI-H226 lung
  GI50: > 100 µM
  TGI: > 100 µM
NCI-H23 lung
  GI50: 5.9 µM
  TGI: > 100 µM
NCI-H460 lung
  GI50: 3 µM
  TGI: > 100 µM
NCI-H522 lung
  GI50: 3.78 µM
  TGI: > 100 µM
NCI/ADR-RES ovarian
  GI50: 1.43 µM
  TGI: 20.9 µM
OVCAR-3 ovarian
  GI50: 2.3 µM
  TGI: 10 µM
OVCAR-4 ovarian
  GI50: > 100 µM
  TGI: > 100 µM
OVCAR-5 ovarian
  GI50: 3.86 µM
  TGI: > 100 µM
OVCAR-8 ovarian
  GI50: 7.06 µM
  TGI: > 100 µM
PC-3 prostate
  GI50: 3.22 µM
  TGI: > 100 µM
RPMI-8226 leukemia
  GI50: 4.33 µM
  TGI: > 100 µM
RXF 393 renal
  GI50: 3.93 µM
  TGI: 39.4 µM
SF-268 CNS
  GI50: 9.89 µM
  TGI: > 100 µM
SF-295 CNS
  GI50: 1.96 µM
  TGI: 41.6 µM
SF-539 CNS
  GI50: 1.8 µM
  TGI: 5.2 µM
SK-MEL-2 melanoma
  GI50: 5.08 µM
  TGI: > 100 µM
SK-MEL-28 melanoma
  GI50: 6.25 µM
  TGI: > 100 µM
SK-MEL-5 melanoma
  GI50: 7.45 µM
  TGI: > 100 µM
SK-OV-3 ovarian
  GI50: 8.15 µM
  TGI: > 100 µM
SN12C renal
  GI50: 17 µM
  TGI: > 100 µM
SNB-19 CNS
  GI50: 11.7 µM
  TGI: > 100 µM
SNB-75 CNS
  GI50: 1.81 µM
  TGI: 23 µM
SR leukemia
  GI50: 0.777 µM
  TGI: > 100 µM
SW-620 colon
  GI50: 2.58 µM
  TGI: > 100 µM
T-47D breast
  GI50: 6.88 µM
  TGI: > 100 µM
TK-10 renal
  GI50: 63.8 µM
  TGI: > 100 µM
U251 CNS
  GI50: 2.34 µM
  TGI: > 100 µM
UACC-257 melanoma
  GI50: > 100 µM
  TGI: > 100 µM
UACC-62 melanoma
  GI50: 5.42 µM
  TGI: > 100 µM
UO-31 renal
  GI50: 17.9 µM
  TGI: > 100 µM
